Assay results as given in patent US20200048308A1, “INFLUENZA VIRUS NE[…]” (priority 2016, published 2020).
Read-outs that look alike come from different tables or passages of the source. Where a SMILES comes first, the peptide text is derived from it.

Legend:
[1] = target: H1/Cal HA (biotinylated full length trimeric HA, A/California/07/2009) (Influenza A virus, UniProt C3W5X2); experiment: AlphaLISA competition assay with HB80.4, H1/Cal HA; type: binding, influenza A virus H1N1 A/California/07/2009
From the text: (§1) Binding competition studies were designed to test compounds of the invention for competition with other well characterized HA binding proteins (such as e.g. CR9114, CR6261 and HB80.4) with known epitopes on HA. The epitopes where either located at the stem of the HA (viral membrane proximal part of HA) or, for control purposes, at the head of HA (viral membrane distal part of HA). If competition was observed, it was assumed that both molecules bind to a similar or at least overlapping epitope at the surface of HA. Competition with a HA head- and stem-binder was interpreted as unspecific binding.
(§2) Hereto an AlphaLISA competition assay (Perkin Elmer) was established which relied on biotinylated full length and trimeric HA proteins (Protein Sciences, 10 μL, 0.5 nM final concentration in 50 μL) bound by HA-specific binders. The interaction between HA and the binder was detected after 1 h incubation at room temperature (RT) with two beads, a streptavidin donor bead recognizing HA (10 μL of 10 μg/mL) and an anti Fc bead (10 μg/mL) recognizing the IgGs used. If after an additional hour of incubation at RT the excited donor bead (680 nm) and acceptor bead are in close proximity, an energy transfer (singlet oxygen) can be measured as a luminescence signal of the acceptor bead (Perkin Elmer EnVision plate reader). The signal intensity in this homogeneous assay format is directly proportional to the binding strength (affinity/avidity) between both binding partners.

[2] = target: H1/Nca HA (biotinylated full length trimeric HA, A/New Caledonia/20/1999) (Influenza A virus, UniProt Q6WG00); experiment: AlphaLISA competition assay with HB80.4, H1/NCa HA; type: binding, influenza A virus H1N1 A/New Caledonia/20/1999
From the text: as §1, §2

[3] = ALC_H1_NCa_HB80.4 calculated pIC50, AlphaLISA competition with HB80.4 on H1 NCa HA, 0.5 nM HA

SMILES | IC50 [1] | IC50 [2, 3] | IC50 [2]
CSCC[C@@H]1NC(=O)[C@H](CCC(=O)O)NC(=O)CNC(=O)[C@H](C)NC(=O)[C@H](C(C)C)NC(=O)CNC(=O)[C@H](CC(C)C)NC(=O)[C@@H]2CCCN2C(=O)[C@H](CC(=O)O)NC(=O)[C@H](CCCNC(=N)N)NC(=O)[C@H](Cc2ccc(O)cc2)NC(=O)[C@H](CC(C)C)NC(=O)[C@@H](NC(=O)CCC(=O)O)CSSC[C@@H](C(N)=O)NC(=O)CNC1=O [CP141071, Suc-Cys-Leu-Tyr-Arg-Asp-Pro-Leu-Gly-Val-Ala-Gly-Glu-Met-Gly-Cys-NH2] (HELM PEPTIDE1{[O=C(O)CCC(=O)[*:2]].C.L.Y.R.D.P.L.G.V.A.G.E.M.G.C.[am]}$PEPTIDE1,PEPTIDE1,2:R3-16:R3$$$V2.0) | 0.501 µM | 2 µM | –
CSCC[C@@H]1NC(=O)[C@H](CCC(=O)O)NC(=O)CNC(=O)[C@H](C)NC(=O)[C@H](C(C)C)NC(=O)CNC(=O)[C@H](CC(C)C)NC(=O)[C@@H]2CCCN2C(=O)[C@H](CC(=O)O)NC(=O)[C@H](CCCNC(=N)N)NC(=O)[C@H](Cc2ccc(O)cc2)NC(=O)[C@@H](NC(=O)CCC(=O)O)CSSC[C@@H](C(N)=O)NC1=O [CP141072, Suc-Cys-Tyr-Arg-Asp-Pro-Leu-Gly-Val-Ala-Gly-Glu-Met-Cys-NH2] | 15.8 µM | – | 12.6 µM
CSCC[C@H](NC(=O)CNC(=O)CNC(=O)[C@H](C)NC(=O)[C@@H](NC(=O)CNC(=O)[C@H](CC(C)C)NC(=O)[C@@H]1CCCN1C(=O)[C@H](CC(=O)O)NC(=O)[C@H](CCCNC(=N)N)NC(=O)[C@H](Cc1ccc(O)cc1)NC(=O)[C@H](CC(C)C)NC(=O)[C@H](CO)NC(=O)[C@@H](NC(=O)CCC(=O)O)C(C)C)C(C)C)C(=O)NCC(=O)N[C@H](C(=O)N[C@@H](Cc1ccc(O)cc1)C(N)=O)C(C)C [CP141073, Suc-Val-Ser-Leu-Tyr-Arg-Asp-Pro-Leu-Gly-Val-Ala-Gly-Gly-Met-Gly-Val-Tyr-NH2] | 2 µM | 6.31 µM | –
CSCC[C@H](NC(=O)CNC(=O)CNC(=O)[C@H](C)NC(=O)[C@@H](NC(=O)CNC(=O)[C@H](CC(C)C)NC(=O)[C@@H]1CCCN1C(=O)[C@H](CC(=O)O)NC(=O)[C@H](CCC(=O)O)NC(=O)[C@H](Cc1ccc(O)cc1)NC(=O)[C@H](CC(C)C)NC(=O)[C@H](CO)NC(=O)[C@@H](NC(=O)CCC(=O)O)C(C)C)C(C)C)C(=O)NCC(=O)N[C@H](C(=O)N[C@@H](Cc1ccc(O)cc1)C(N)=O)C(C)C [CP141074, Suc-Val-Ser-Leu-Tyr-Glu-Asp-Pro-Leu-Gly-Val-Ala-Gly-Gly-Met-Gly-Val-Tyr-NH2] | 3.98 µM | 5.01 µM | –
CSCC[C@H](NC(=O)[C@H](CCC(=O)O)NC(=O)CNC(=O)[C@H](C)NC(=O)[C@@H](NC(=O)CNC(=O)[C@H](CC(C)C)NC(=O)[C@@H]1CCCN1C(=O)[C@H](CC(=O)O)NC(=O)[C@H](CCCNC(=N)N)NC(=O)[C@H](Cc1ccc(O)cc1)NC(=O)[C@H](CC(C)C)NC(=O)[C@H](CO)NC(=O)[C@@H](NC(=O)CCC(=O)O)C(C)C)C(C)C)C(=O)NCC(=O)N[C@H](C(=O)N[C@@H](Cc1ccc(O)cc1)C(N)=O)C(C)C [CP141075, Suc-Val-Ser-Leu-Tyr-Arg-Asp-Pro-Leu-Gly-Val-Ala-Gly-Glu-Met-Gly-Val-Tyr-NH2] (HELM PEPTIDE1{[O=C(O)CCC(=O)[*:2]].V.S.L.Y.R.D.P.L.G.V.A.G.E.M.G.V.Y.[am]}$$$$V2.0) | 10 µM | 50.1 µM | –
CCCC[C@H](NC(=O)CNC(=O)CNC(=O)[C@H](C)NC(=O)[C@@H](NC(=O)CNC(=O)[C@H](CC(C)C)NC(=O)[C@@H]1CCCN1C(=O)[C@H](CC(=O)O)NC(=O)[C@H](CCCNC(=N)N)NC(=O)[C@H](Cc1ccc(O)cc1)NC(=O)[C@H](CC(C)C)NC(=O)[C@H](CO)NC(=O)[C@@H](NC(=O)CCC(=O)O)C(C)C)C(C)C)C(=O)NCC(=O)N[C@H](C(=O)N[C@@H](Cc1ccc(O)cc1)C(N)=O)C(C)C [CP141081, Suc-Val-Ser-Leu-Tyr-Arg-Asp-Pro-Leu-Gly-Val-Ala-Gly-Gly-Nlu-Gly-Val-Tyr-NH2] | 3.16 µM | – | 7.94 µM
